# Where two headings read alike, the source gives them in different places.
# Columns and labels:
# in vitro [1] = settings: human
# in vitro [2] = assay: in vitro
# Mycobacterium fortuitum = assay: Serial microplate dilution MIC, mycobacteria; assay type: cell-based
# [3] = tested on: Colletotrichum gloeosporioides; assay: MIC, plant pathogenic fungi; assay type: cell-based
# Procedure: (§1) The microplate dilution method (Eloff, 1998), with slight modification (Masoko et al., 2005) was used to test the antifungal activity of the crude extracts, fractions and isolated compounds from P. obliquum. Clinical isolates of the four opportunistic fungal strains Aspergillus fumigatus, Candida albicans, Crytococcus neoformans and Candida albicans ATCC 10231 were used to test for antifungal activity.
# (§2) The antifungal activity of the crude extracts and the five fractions were also tested against 10 plant pathogenic fungi (Aspergillus niger, Aspergillus parasiticus, Colletotrichum gloeosporioides, Fusarium oxysporum, Penicillium digitum, Penicillium expansum, Penicillium italicum, Penicillium janthinellum, Trichoderma harzianum and Rhizoctonia solani).
# Aspergillus parasiticus = assay: MIC, plant pathogenic fungi; assay type: cell-based
# Procedure: as §1, §2
# Penicillium digitum = assay: MIC, plant pathogenic fungi; assay type: cell-based
# Procedure: as §1, §2
# Fusarium oxysporum = assay: MIC, plant pathogenic fungi; assay type: cell-based
# Procedure: as §1, §2
# Trichoderma harzianum = assay: MIC, plant pathogenic fungi; assay type: cell-based
# Procedure: as §1, §2
# Penicillium expansum = assay: MIC, plant pathogenic fungi; assay type: cell-based
# Procedure: as §1, §2
# Rhizoctonia solani = assay: MIC, plant pathogenic fungi; assay type: cell-based
# Procedure: as §1, §2
# Penicillium italicum = assay: MIC, plant pathogenic fungi; assay type: cell-based
# Procedure: as §1, §2
# Penicillium janthinellum = assay: MIC, plant pathogenic fungi; assay type: cell-based
# Procedure: as §1, §2
# Aspergillus niger = assay: MIC, plant pathogenic fungi; assay type: cell-based
# Procedure: as §1, §2
# Mycobacterium aurum = assay: Serial microplate dilution MIC, mycobacteria; assay type: cell-based; settings: Mycolicibacterium aurum
# mouse fibroblast cells = settings: 5 days
# Text: (§5) The MTT assay was used to determine the cytotoxicity of dried acetone extracts of H. caffrum (leaves); P. obliquum (leaves); R. melanophloeos (leaves) and S. birrea (stem bark) reconstituted in dimethyl sulphoxide (DMSO) against Mouse fibroblast cells (obtained from the Department of Plant Science, Faculty of Natural and Agricultural Sciences, University of Pretoria, South Africa).
# (§6) MTT (yellow) is reduced into a formazan (purple) by viable cells. The colour intensity of the formazan produced, which is directly proportional to the number of viable cells, is measured using a spectrophotometer (Mosmann, 1983; Shai, 2007).
# (§7) Cells were maintained in minimal essential medium (MEM) (Highveld Biological, South Africa) supplemented with 0.1% gentamicin (Virbac) and 5% foetal calf serum (Adcock-lngram). […] Dried crude plant extracts (100 mg) were reconstituted in 1 ml of DMSO and serial 10-fold dilutions of each extract were prepared in growth medium. The growth medium on sub-confluent monolayer cells grown overnight in microtitre plates was removed and cells were exposed to 200 μl of the extracts at different concentrations and incubated again at 37° C. for 5 days. Viability of cells was determined using the tetrazolium-based colorimetric assay (MTT assay) described by Mossmann (1983). Before the addition of MTT, the extract-containing medium on the cells was replaced with fresh culture medium to exclude reduction of the tetrazolium compound by plant extracts. The assay is based on mitochondrial dehydrogenase activity which is assessed by the reductive cleavage of the tetrazolium salt MTT [3-(4.5-dimethylthiazolyl)2.5-diphenyltetrazolium bromide] due to the succinic dehydrogenase present in living cells to yield a purple formazan dye. The cells were incubated with 30 μl of 5 mg/ml MTT in phosphate-buffered saline (PBS) for four hours. Thereafter, medium was removed and cells washed with PBS. DMSO (50 μl) was added to the cells and absorbance was measured using a Versamax microplate reader at 570 nm. Berberine chloride (Sigma) was used as a positive control, wells containing only cells acted as the negative control and a solvent control was also included. The percentage cell viability following the addition of varying concentrations of the extracts in relation to controls was calculated. The LC50 values were calculated (using SoftMax Pro4.8 Software) as the concentration of plant extracts resulting in 50 percent reduction of absorbance compared to untreated cells. Tests were carried out in quadruplicate and each experiment was repeated three times.
# [4] = tested on: bacterial strains (E. coli, E. faecalis, P. aeruginosa, S. aureus, S. typhi); assay: Antibacterial MIC, summary statements over all bacterial strains tested; assay type: cell-based; settings: read-out: MIC (bacteria tested, summary)
# Procedure: (§3) The serial microplate dilution method developed by Eloff (1998) was used to determine the minimal inhibitory concentration (MIC) of the crude extracts, fractions and isolated compounds from P. obliquum against several bacterial strains. The antimicrobial activity was determined against the bacterial strains Escherichia coli ATTC 27853, Escherichia coli ATTC 6739, Enterococcus faecalis ATCC 29212, Pseudomonas aeruginosa ATCC 25922, Staphylococcus aureus ATCC 6538, Staphylococcus aureus ATCC 29213, Salmonella typhi ATCC 14028.
# [5] = tested on: Haemonchus contortus (larva); assay: Larval development test (LDT); assay type: cell-based
# Procedure: (§4) The extract and isolated compound were tested for activity on Haemonchus contortus.
# Mycobacterium smegmatis = assay: Serial microplate dilution MIC, mycobacteria; assay type: cell-based
# [6] = tested on: Haemonchus contortus (egg); assay: Egg hatch assay (EHA); assay type: cell-based; settings: egg of Haemonchus contortus; read-out: Antihelminthic activity EC50 (mg/ml) EDA
# Procedure: as §4
# in vitro [7] = settings: mouse, LC50 (cytotoxicity)
# Text: as §5, §6, §7
# Mycobacterium bovis = assay: microbe, parasite or virus in culture; assay type: cell-based
# [8] = tested on: Candida albicans standard strain (ATCC 10231) and clinical isolates; assay: Broth micro-dilution assay, minimal inhibitory concentration (MIC); assay type: cell-based; settings: for MIC: Candida albicans, read-out: MIC; for Selectivity index (SI): LC50 against mouse fibroblast cells/MIC
# [9] = tested on: Candida albicans (clinical isolate); assay: Microplate dilution MIC, opportunistic fungi (Example 9); assay type: cell-based
# Text: as §1
# Aspergillus fumigatus = assay: as above; assay type: cell-based
# Text: as §1
# [10] = tested on: Candida albicans ATCC 10231; assay: as above; assay type: cell-based; settings: ATCC10231
# Text: as §1
# Cryptococcus neoformans = assay: as above; assay type: cell-based
# Text: as §1
# [11] = tested on: Salmonella typhi ATCC 14028; assay: Serial microplate dilution MIC, bacteria; assay type: cell-based; settings: Salmonella enterica
# Procedure: as §3
# [12] = tested on: Staphylococcus aureus ATCC 29213; assay: Serial microplate dilution MIC, bacteria; assay type: cell-based; settings: ATCC29213
# Procedure: as §3
# [13] = tested on: Pseudomonas aeruginosa ATCC 25922; assay: Serial microplate dilution MIC, bacteria; assay type: cell-based; settings: ATCC25922
# Procedure: as §3
# [14] = tested on: Escherichia coli ATTC 6739; assay: Serial microplate dilution MIC, bacteria; assay type: cell-based; settings: ATTC6739
# Procedure: as §3
# [15] = tested on: Enterococcus faecalis ATCC 29212; assay: Serial microplate dilution MIC, bacteria; assay type: cell-based; settings: ATCC29212
# Procedure: as §3
# [16] = tested on: Staphylococcus aureus ATCC 6538; assay: Serial microplate dilution MIC, bacteria; assay type: cell-based; settings: ATCC6538
# Procedure: as §3
# [17] = tested on: Escherichia coli ATTC 27853; assay: Serial microplate dilution MIC, bacteria; assay type: cell-based; settings: ATTC27853
# Procedure: as §3
smiles,measurement,setting,value
"COc1cccc2c1C(=O)c1c(O)c3c(c(O)c1C2=O)C[C@@](O)(C(=O)CO)C[C@@H]3O[C@H]1C[C@H](N)[C@H](O)[C@H](C)O1 [doxorubicin, reference compound]",CC50,in vitro [1],116 ± 17.4 nM
same,CC50,in vitro [2]; monkey,2510 ± 203 nM
"CC(=O)OCC1=CCc2c(cc(O)c3c(=O)cc(C)oc23)OC1 [Compound 2, 8,11-Dihydro-5-hydroxy-12-hydroxymethyl-2-methyl-4H-pyrano[2,3-g][1]benzoxepin-4-one 12-O-acetate]",MIC,Mycobacterium fortuitum; Mycobacterium fortuitum,8 µg/mL
same,MIC,"Mycobacterium fortuitum; Mycolicibacterium fortuitum, M. fortuitum, read-out: MIC",8 µg/mL
same,MIC,[3],32 µg/mL
same,MIC,Aspergillus parasiticus,250 µg/mL
same,MIC,Penicillium digitum,32 µg/mL
same,MIC,Fusarium oxysporum,63 µg/mL
same,MIC,Trichoderma harzianum,16 µg/mL
same,MIC,"Trichoderma harzianum; T. harzianum, read-out: MIC",16 µg/mL
same,MIC,Penicillium expansum,32 µg/mL
same,MIC,Rhizoctonia solani,8 µg/mL
same,MIC,"Rhizoctonia solani; R. solani, read-out: MIC",8 µg/mL
same,MIC,Penicillium italicum,125 µg/mL
same,MIC,Penicillium janthinellum,63 µg/mL
same,MIC,Aspergillus niger,32 µg/mL
same,MIC,Mycobacterium aurum,125 µg/mL
same,CC50,in vitro [2]; monkey and human,> 200 µg/mL
same,LC50 (cytotoxicity),mouse fibroblast cells,7.23 µg/mL
same,MIC,[4],31.5 µg/mL
same,EC50,"[5]; Haemonchus contortus larvae, read-out: EC50 against larvae",0.0956 mg/mL
same,EC50,"[5]; larva of Haemonchus contortus, read-out: Antihelminthic activity EC50 (mg/ml) LDT",0.0956 ± 0.002 mg/mL
same,MIC,Mycobacterium smegmatis; Mycobacterium smegmatis,16 µg/mL
same,MIC,"Mycobacterium smegmatis; Mycolicibacterium smegmatis, M. smegmatis, read-out: MIC",16 µg/mL
same,EC50,[6],0.224 ± 0.0286 mg/mL
same,CC50 at 5 days,in vitro [7],7.23 µg/mL
same,MIC,Mycobacterium bovis; Mycobacterium bovis,31.5 µg/mL
same,MIC,Mycobacterium bovis; Mycobacterium tuberculosis variant bovis,31.5 µg/mL
same,MIC,"[8]; 12 h, 12 h incubation, C. albicans 1051255",> 250 µg/mL
same,MIC,"[8]; 12 h, 12 h incubation, C. albicans 1051604",> 250 µg/mL
same,MIC,"[8]; 12 h, 12 h incubation, C. albicans 1051608",8 µg/mL
same,MIC,"[8]; 12 h, 12 h incubation, C. albicans ATCC 10231",4 µg/mL
same,MIC,"[8]; 12 h, 12 h incubation, C. albicans M0824",> 250 µg/mL
same,MIC,"[8]; 12 h, 12 h incubation, C. albicans M0825",> 250 µg/mL
same,MIC,"[8]; 12 h, 12 h incubation, C. albicans M0826",> 250 µg/mL
same,MIC,"[8]; 24 h, 24 h incubation, C. albicans 1051255",> 250 µg/mL
same,MIC,"[8]; 24 h, 24 h incubation, C. albicans 1051604",> 250 µg/mL
same,MIC,"[8]; 24 h, 24 h incubation, C. albicans 1051608",250 µg/mL
same,MIC,"[8]; 24 h, 24 h incubation, C. albicans ATCC 10231",4 µg/mL
same,MIC,"[8]; 24 h, 24 h incubation, C. albicans M0824",> 250 µg/mL
same,MIC,"[8]; 24 h, 24 h incubation, C. albicans M0825",> 250 µg/mL
same,MIC,"[8]; 24 h, 24 h incubation, C. albicans M0826",> 250 µg/mL
same,MIC,"[8]; C. albicans ATCC 10231, mean value",4 µg/mL
same,Selectivity index (SI),[8]; C. albicans 1051255,<0.029
same,Selectivity index (SI),[8]; C. albicans 1051604,<0.029
same,Selectivity index (SI),[8]; C. albicans 1051608,0.029
same,Selectivity index (SI),[8]; C. albicans ATCC 10231,1.808
same,Selectivity index (SI),[8]; C. albicans M0824,<0.029
same,Selectivity index (SI),[8]; C. albicans M0825,<0.029
same,Selectivity index (SI),[8]; C. albicans M0826,<0.029
same,Selectivity index (SI) Average,[8]; average over ATCC 10231 and clinical isolates,0.283
same,MIC,[9],62.5 µg/mL
same,MIC,Aspergillus fumigatus,16 µg/mL
same,MIC,[10],2 µg/mL
same,MIC,Cryptococcus neoformans,8 µg/mL
same,MIC,[11],31.5 µg/mL
same,MIC,[12],31.5 µg/mL
same,MIC,[13],31.5 µg/mL
same,MIC,[14],80 µg/mL
same,MIC,[15],> 250 µg/mL
same,MIC,[16],31.5 µg/mL
same,MIC,[17],80 µg/mL

# — patent US9682114B2, “Plant extracts of Ptaeroxylon obliquum nand compounds having antimicrobial and antihelminthic activity” (UNIVERSITY OF PRETORIA, priority 2013, dated 2017)
